Literature values in patent US20140044780A1, “Extended-Release Levetiracetam and Method of Preparation” (PharmTak, Inc., priority 2012, published 2014).

CC[C@@H](C(N)=O)N1CCCC1=O (single isomer, unassigned) [Levetiracetam]
Solubility in water: 104 g/100 mL
